Measured values from US8389523B2, “Substituted quinoxaline and an agrochemical composition thereof” (Kumiai Chemical Industry Co., Ltd., priority 2007, dated 2013).

Legend:
Format in all cases: in vivo
Parameters in all cases: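 grade 0 to 5 of growth suppression where 5 is 90% or more and 0 below 10%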
[1] = tested on: Abutilon theophrasti medicus; assay: Herbicidal effects in upland field foliar treatment (Test Example 3); conditions: criteria of Table 138; for herbicidal effects on Abutilon theophrasti medicus: 1000 g of the active ingredient per hectare, 14th day after the treatment, wettable powder; for herbicidal effect (index) on Abutilon theophrasti medicus: 1000 g active ingredient per hectare, 14th day after treatment
Summary of the method: (§1)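 Weeds were sown in upland field soil and grown two weeks in a greenhouse before a foliar spray over the whole plant. Wettable powder was diluted in water and applied at 1000 L/ha, delivering 1000 g active ingredient/ha. Herbicidal effect was scored against set rating criteria 14 days after treatment.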

[2] = tested on: Echinochloa crus-galli (L.) P. Beauv. var. crus-galli; assay: as above; conditions: criteria of Table 138; for herbicidal effects on Echinochloa crus-galli (L.) P. Beauv. var. crus-galli: 1000 g of the active ingredient per hectare, 14th day after the treatment, wettable powder; for herbicidal effect (index) on Echinochloa crus-galli (L.) P. Beauv. var. crus-galli: 1000 g active ingredient per hectare, 14th day after treatment
Summary of the method: as §1

[3] = tested on: Amaranthus viridis L.; assay: as above; conditions: criteria of Table 138; for herbicidal effects on Amaranthus viridis L.: 1000 g of the active ingredient per hectare, 14th day after the treatment, wettable powder; for herbicidal effect (index) on Amaranthus viridis L.: 1000 g active ingredient per hectare, 14th day after treatment
Summary of the method: as §1

[4] = tested on: Echinochloa oryzicola Vasing; assay: Herbicidal effects in paddy field soil treatment (Test Example 1); conditions: paddy field soil treatment; 1000 g of the active ingredient per hectare; wettable powder added dropwise on water surface; 21st day after treatment
Summary of the method: (§2)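 Weed seeds were sown into puddled, leveled paddy soil in pots and flooded to 3 cm water depth. One day later the diluted wettable powder formulation was dropped onto the water surface at 1000 g active ingredient per hectare. Herbicidal effect was scored on day 21 after greenhouse growth.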

[5] = tested on: Scirpus juncoides Roxb. var. ohwianus. T. Koyama; assay: as above; conditions: paddy field soil treatment; 1000 g of the active ingredient per hectare; wettable powder added dropwise on water surface; 21st day after treatment
Summary of the method: as §2

[6] = tested on: Monochoria vaginalis (Burm. f.) Presl var. plantaginea (Roxb.) Solms-Laub.; assay: as above; conditions: paddy field soil treatment; 1000 g of the active ingredient per hectare; wettable powder added dropwise on water surface; 21st day after treatment
Summary of the method: as §2

[7] = tested on: Abutilon theophrasti medicus; assay: Herbicidal effects in upland field soil treatment (Test Example 2); conditions: 1000 g active ingredient per hectare, 21st day after treatment, criteria of Table 138
Summary of the method: (§3)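 Pre-emergence soil application: seeds sown in upland field soil, covered, then wettable powder diluted in water sprayed on the soil surface at 1000 g active ingredient/ha in 1000 L/ha. Plants grown in greenhouse; herbicidal effect scored on a rating scale 21 days after treatment.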

[8] = tested on: Amaranthus viridis L.; assay: as above; conditions: 1000 g active ingredient per hectare, 21st day after treatment, criteria of Table 138
Summary of the method: as §3

SMILES	herbicidal effects on Abutilon theophrasti medicus [1]	herbicidal effects on Echinochloa crus-galli (L.) P. Beauv. var. crus-galli [2]	herbicidal effects on Amaranthus viridis L. [3]	Herbicidal effects index, Echinochloa oryzicola Vasing [4]	Herbicidal effects index, Scirpus juncoides Roxb. var. ohwianus. T. Koyama [5]	Herbicidal effects index, Monochoria vaginalis (Burm. f.) Presl var. plantaginea (Roxb.) Solms-Laub. [6]	herbicidal effect (index) on Abutilon theophrasti medicus [7]	herbicidal effect (index) on Amaranthus viridis L. [8]	herbicidal effect (index) on Abutilon theophrasti medicus [1]	herbicidal effect (index) on Echinochloa crus-galli (L.) P. Beauv. var. crus-galli [2]	herbicidal effect (index) on Amaranthus viridis L. [3]
O=C1CCCC(O)=C1C(=O)c1nc2cccnc2n(Cc2ccccc2OC(F)F)c1=O [III-234]	5	5	5	5	5	5	5	5			
Cc1ccc(-n2c(=O)c(C(=O)C3=C(O)CCCC3=O)nc3cccnc32)cc1 [IV-21]	5	5	5	5	5	5	5	5			
CC(C)n1c(=O)c(C(=O)C2=C(O)CCCC2=O)nc2ccccc21 [Compound I-13]				5	5	5	5	5	5	5	5
O=C1CCCC(O)=C1C(=O)c1nc2cccnc2n(CC(F)(F)F)c1=O [III-40]	5	4	5	5	5	5	5	5			
COCCCn1c(=O)c(C(=O)C2=C(O)CCCC2=O)nc2ccccc21 [Compound I-93]				5	5	5	4	5	5	5	5
COCCn1c(=O)c(C(=O)C2=C(O)CCCC2=O)nc2cccc(Cl)c21 [I-230]				5	5	5	4	5	5	5	5
